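Grown in 96-well plates, cells were treated for 48 hours with each compound at five concentrations. Insufficient inhibition: endpoint recorded as highest concentration tested. At the GI50, growth is halved. The concentration for full growth arrest is given as TGI.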 Where a SMILES comes first, the peptide text is derived from it. The star is where a group is joined. Boc = CC(C)(C)OC(=O)*

The test system of one assay is UO-31 renal. In words: growth of human tumour cells (NCI), 48 h.
The compound `c1ccc2sc(SCSc3nc4ccccc4s3)nc2c1` yielded a TGI of more than 100 µM.
`O=c1oc(-c2ccc(O)c(O)c2)cc2cccc(O)c12`: the TGI was more than 59.4 µM.
For `COc1cc2c(cc1-c1c(C)noc1C)cc(C)c(=O)n2Cc1ccccn1`, the GI50 is 0.376 µM and the TGI was more than 100 µM.
`CCOC(=O)c1c(-c2ccc(OC)cc2)c(C#N)c(=S)n(C2OC(COC(C)=O)C(OC(C)=O)C(OC(C)=O)C2OC(C)=O)c1C` (stereo not given): the TGI was 6.02 µM.
The compound `C1=CC2=CC=CC3c4nc5ccc6ccccc6c5nc4C(=C1)C23` (stereo not given) came in with a TGI of more than 100 µM.
On the same count and under the same terms, to `O=c1cc(N=P(c2ccccc2)(c2ccccc2)c2ccccc2)n(-c2ccccc2)c(=O)n1-c1ccccc1` belongs 34.6 µM.
Same read-out and setting: to `O=C(NCCCN(CCCCN(CCCNC(=O)C(F)(F)F)Cc1ccccc1)Cc1ccccc1)C(F)(F)F` belongs 17.4 µM.
The same measure, in the same setting: as for `O=C(CCCN1CCC2(CC1)CC(=O)N(N1CCOCC1)C2=O)c1ccccc1`, the figure is more than 100 µM; as for `COc1ccc(C(OCC2OC(n3cc(C)c(=O)[nH]c3=O)CC2n2cc(Cn3cc(F)c(=O)[nH]c3=O)nn2)(c2ccccc2)c2ccccc2)cc1` (stereo not given), 23.6 µM.
As for `C=CCn1c(=O)ccn(COCCO)c1=O`, the TGI was more than 100 µM.
On the same count and under the same terms, to `Oc1ccccc1/C=N/c1nc2cc3sc(/N=C/c4ccccc4O)nc3cc2s1` belongs more than 100 µM.
On the same count and under the same terms, to `CCCCC1c2c([nH]c3ccccc23)C2C(=O)N(c3ccc(OC)cc3)C(=O)C2C1CCC` (stereo not given) belongs more than 10 µM.
As for `C(=N\NC1=NCCCN1)/c1ccc2ccccc2c1`, the TGI turned out to be 23.8 µM.
`CCOC(=N)n1c(=O)n(C2=NCCN2)c2ccccc21` yielded a TGI of more than 100 µM.
The same measure, in the same setting: as for `O=C(NCCN1CCOCC1)c1ccc2cc(C(=O)N3CC(CCl)c4ccc([N+](=O)[O-])cc43)[nH]c2c1` (stereo not given), the figure is more than 100 µM; as for `Cc1csc(-c2cn(C)c3c2C(=O)C(N)=CC3=O)n1`, more than 100 µM.
Same read-out and setting: to `Nc1c(-c2cccc3ccccc23)c2ccc([N+](=O)[O-])cc2c(=O)n1-c1nc2ccccc2s1` belongs more than 100 µM; to `CC1CC[C@@]2(OC1)OC1C[C@H]3[C@@H]4CC[C@H]5CC(OC6OC(CO)C(OC7OC(CO)C(O)C(O)C7OC7OC(CO)C(O)C(O)C7O)C(O)C6O)CCC5(C)[C@H]4CCC3(C)C1[C@@H]2C` (stereo not given in full), 1.94 µM.
The same measure, in the same setting: as for `C/C=C/C=C/c1nc(C#N)c(N)o1`, the figure is more than 100 µM; as for `O=c1c2ccccc2nc2[nH][nH]c(=S)n12`, more than 100 µM.
`CC(C)(C)OC(=O)NCC(=O)NCC(=O)NCC(=O)NCC(=O)O` (Boc-GGGG-OH) registered a TGI of more than 100 µM.
Still for that read-out and setting: to `COc1ccc(CC(O)CN2CCOCC2)cc1` (stereo not given) belongs more than 100 µM; to `CC(C)COP(=O)(OCC(C)C)C(NS(=O)(=O)c1ccccc1)(C(F)(F)F)C(F)(F)F`, 7.4 µM.
With `CN(C)CCCN1C(=S)N(CCCN(C)C)c2c3cc(O)ccc3nc3c([N+](=O)[O-])ccc1c23`, the TGI turned out to be 18.7 µM.
`COc1cc(C2SCC(=O)N2c2ccc(NC(=O)c3ccc(N4C(=O)CSC4c4cc(OC)c(OC)c(OC)c4)cc3)cc2)cc(OC)c1OC` (stereo not given) gave a TGI of more than 100 µM.

Another assay deals with MOLT-4 leukemia. In words: growth of human tumour cells (NCI), 48 h.
`c1ccc2sc(SCSc3nc4ccccc4s3)nc2c1`: the TGI was more than 100 µM.
On the same count and under the same terms, as for `O=c1oc(-c2ccc(O)c(O)c2)cc2cccc(O)c12`, the figure is 52 µM.
For `COc1cc2c(cc1-c1c(C)noc1C)cc(C)c(=O)n2Cc1ccccn1`, the GI50 was 3.13 µM and the TGI was more than 100 µM.
The compound `CCOC(=O)c1c(-c2ccc(OC)cc2)c(C#N)c(=S)n(C2OC(COC(C)=O)C(OC(C)=O)C(OC(C)=O)C2OC(C)=O)c1C` (stereo not given) showed a TGI of more than 100 µM.
On the same count and under the same terms, to `C1=CC2=CC=CC3c4nc5ccc6ccccc6c5nc4C(=C1)C23` (stereo not given) belongs more than 100 µM; to `O=c1cc(N=P(c2ccccc2)(c2ccccc2)c2ccccc2)n(-c2ccccc2)c(=O)n1-c1ccccc1`, 22 µM.
The same measure, in the same setting: as for `O=C(NCCCN(CCCCN(CCCNC(=O)C(F)(F)F)Cc1ccccc1)Cc1ccccc1)C(F)(F)F`, the figure is 39.9 µM; as for `O=C(CCCN1CCC2(CC1)CC(=O)N(N1CCOCC1)C2=O)c1ccccc1`, more than 100 µM.
Still for that read-out and setting: as for `COc1ccc(C(OCC2OC(n3cc(C)c(=O)[nH]c3=O)CC2n2cc(Cn3cc(F)c(=O)[nH]c3=O)nn2)(c2ccccc2)c2ccccc2)cc1` (stereo not given), the figure is 18.6 µM; as for `C=CCn1c(=O)ccn(COCCO)c1=O`, more than 100 µM; as for `Oc1ccccc1/C=N/c1nc2cc3sc(/N=C/c4ccccc4O)nc3cc2s1`, 81.2 µM.
As to `CCCCC1c2c([nH]c3ccccc23)C2C(=O)N(c3ccc(OC)cc3)C(=O)C2C1CCC` (stereo not given), the TGI came to 7.97 µM.
The same measure, in the same setting: to `C(=N\NC1=NCCCN1)/c1ccc2ccccc2c1` belongs 5.02 µM.
The same measure, in the same setting: as for `CCOC(=N)n1c(=O)n(C2=NCCN2)c2ccccc21`, the figure is more than 100 µM.
The same measure, in the same setting: as for `O=C(NCCN1CCOCC1)c1ccc2cc(C(=O)N3CC(CCl)c4ccc([N+](=O)[O-])cc43)[nH]c2c1` (stereo not given), the figure is 39.1 µM; as for `Cc1csc(-c2cn(C)c3c2C(=O)C(N)=CC3=O)n1`, more than 27.9 µM.
Turning to `Nc1c(-c2cccc3ccccc23)c2ccc([N+](=O)[O-])cc2c(=O)n1-c1nc2ccccc2s1`, the TGI was more than 27.5 µM.
The compound `CC1CC[C@@]2(OC1)OC1C[C@H]3[C@@H]4CC[C@H]5CC(OC6OC(CO)C(OC7OC(CO)C(O)C(O)C7OC7OC(CO)C(O)C(O)C7O)C(O)C6O)CCC5(C)[C@H]4CCC3(C)C1[C@@H]2C` (stereo not given in full) had a TGI of 3.54 µM.
With `C/C=C/C=C/c1nc(C#N)c(N)o1`, the TGI was more than 100 µM.
Same read-out and setting: to `O=c1c2ccccc2nc2[nH][nH]c(=S)n12` belongs more than 100 µM.
On the same count and under the same terms, as for `CC(C)(C)OC(=O)NCC(=O)NCC(=O)NCC(=O)NCC(=O)O` (Boc-GGGG-OH), the figure is more than 100 µM.
Same read-out and setting: to `COc1ccc(CC(O)CN2CCOCC2)cc1` (stereo not given) belongs more than 100 µM; to `CC(C)COP(=O)(OCC(C)C)C(NS(=O)(=O)c1ccccc1)(C(F)(F)F)C(F)(F)F`, 14.9 µM; to `CN(C)CCCN1C(=S)N(CCCN(C)C)c2c3cc(O)ccc3nc3c([N+](=O)[O-])ccc1c23`, 8.81 µM.
`COc1cc(C2SCC(=O)N2c2ccc(NC(=O)c3ccc(N4C(=O)CSC4c4cc(OC)c(OC)c(OC)c4)cc3)cc2)cc(OC)c1OC` (stereo not given): the TGI was more than 100 µM.

In the next assay the test system is SF-268 CNS. In words: growth of human tumour cells (NCI), 48 h.
Compound `c1ccc2sc(SCSc3nc4ccccc4s3)nc2c1` gave a TGI of more than 100 µM.
The same measure, in the same setting: as for `O=c1oc(-c2ccc(O)c(O)c2)cc2cccc(O)c12`, the figure is more than 85.2 µM.
As to `COc1cc2c(cc1-c1c(C)noc1C)cc(C)c(=O)n2Cc1ccccn1`, the GI50 was 4.22 µM and the TGI was more than 100 µM.
For the compound `CCOC(=O)c1c(-c2ccc(OC)cc2)c(C#N)c(=S)n(C2OC(COC(C)=O)C(OC(C)=O)C(OC(C)=O)C2OC(C)=O)c1C` (stereo not given), the TGI was more than 100 µM.
`C1=CC2=CC=CC3c4nc5ccc6ccccc6c5nc4C(=C1)C23` (stereo not given): the TGI is more than 100 µM.
Take `O=c1cc(N=P(c2ccccc2)(c2ccccc2)c2ccccc2)n(-c2ccccc2)c(=O)n1-c1ccccc1`: the TGI was more than 100 µM.
On the same count and under the same terms, to `O=C(NCCCN(CCCCN(CCCNC(=O)C(F)(F)F)Cc1ccccc1)Cc1ccccc1)C(F)(F)F` belongs 25 µM; to `O=C(CCCN1CCC2(CC1)CC(=O)N(N1CCOCC1)C2=O)c1ccccc1`, more than 100 µM.
Compound `COc1ccc(C(OCC2OC(n3cc(C)c(=O)[nH]c3=O)CC2n2cc(Cn3cc(F)c(=O)[nH]c3=O)nn2)(c2ccccc2)c2ccccc2)cc1` (stereo not given) displayed a TGI of 35 µM.
Same read-out and setting: as for `C=CCn1c(=O)ccn(COCCO)c1=O`, the figure is more than 100 µM; as for `Oc1ccccc1/C=N/c1nc2cc3sc(/N=C/c4ccccc4O)nc3cc2s1`, more than 100 µM; as for `CCCCC1c2c([nH]c3ccccc23)C2C(=O)N(c3ccc(OC)cc3)C(=O)C2C1CCC` (stereo not given), more than 10 µM.

The values above are taken from PubChem BioAssay (NCI).
